Consider one molecule from paper PMC5923142, “Selection and Characterization of Rupintrivir-Resistant Norwalk Virus Replicon Cells In Vitro” (Antimicrobial Agents and Chemotherapy, 2018).

In the experiment the test system is recombinant MNV I109V mutant. Nature of the experiment: Antiviral effect against recombinant MNV I109V mutant infection of BV-2 cells (TCID50). The format is cell-based, murine norovirus. Particulars: MOIs 0.1 and 1. How it is done:
BV-2 cells were infected with recombinant WT MNV or the MNV I109V mutant at an MOI of 0.1 or 1 for 1 h in the CO2 incubator at 37°C. After incubation, the supernatant was removed and the cells were washed twice with PBS, and then complete DMEM containing various concentrations of rupintrivir or 2CMC was added to the cells. After 24 h for incubation, the virus titers of the supernatant were determined by measurement of the TCID50. On the basis of the TCID50, the 90% effective concentration (EC90) values of rupintrivir and 2CMC were calculated using XLfit (version 5.3) software.

On to `C[C@@]1(O)[C@H](O)[C@@H](CO)O[C@H]1n1ccc(N)nc1=O` [2CMC, 2-C-methylcytidine], for which the “difference in EC90 values between I109V and WT viruses” value is given as “no significant difference”.
